From ChEMBL document CHEMBL5247607, “Design, synthesis and biological evaluation of a new series of arylidene indanones as small molecules for targeted therapy of non-small cell lung carcinoma and prostate cancer” (Eur J Med Chem, 2022)
Values belong to the compound of their own block, whether it stands above or below them. The source made the active and inactive calls. The calls are words filed in the database; no cut-off is given here.

Experiments:
[1] = target: Cathepsin D (Homo sapiens) (UniProt P07339); assay: Inhibition of cathepsin D (unknown origin) at 100 uM relative to control
Sequence of Cathepsin D (Homo sapiens) (P07339 65-162 limits assumed): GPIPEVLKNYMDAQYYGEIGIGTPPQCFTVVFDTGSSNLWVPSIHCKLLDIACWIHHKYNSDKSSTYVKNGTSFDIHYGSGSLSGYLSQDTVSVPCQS
Sequence of Cathepsin D (Homo sapiens) (P07339 169-412 limits assumed): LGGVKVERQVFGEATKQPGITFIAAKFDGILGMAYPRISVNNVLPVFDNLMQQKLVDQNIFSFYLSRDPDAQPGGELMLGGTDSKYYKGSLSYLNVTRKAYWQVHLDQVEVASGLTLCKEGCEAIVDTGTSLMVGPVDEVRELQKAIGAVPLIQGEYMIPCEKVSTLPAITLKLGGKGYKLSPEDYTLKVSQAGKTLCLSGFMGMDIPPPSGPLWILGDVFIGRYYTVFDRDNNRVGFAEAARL

A549 [2] = assay: Cytotoxicity against human A549 cells assessed as inhibition of cell growth incubated for 24 hrs by MTT assay; assay type: functional, cell-based; settings: A549, 24 h
PANC-1 [3] = assay: Induction of mitochondrial membrane potential loss in human PANC-1 cells assessed as polarized cells at IC50 incubated for 24 hrs by JC-1 staining based flow cytometry assay (reference value: 92%); assay type: functional
PANC-1 [4] = assay: Induction of mitochondrial membrane potential loss in human PANC-1 cells assessed as depolarized cells at IC50 incubated for 24 hrs by JC-1 staining based flow cytometry assay (reference value: 5%); assay type: functional
[5] = Cytotoxicity against human CCD 19Lu cells assessed as inhibition of cell growth incubated for 24 hrs by MTT assay; assay type: toxicity, cell-based
PANC-1 [6] = assay: Induction of morphological changes in human PANC-1 cells assessed as formation of apoptotic bodies at 6.51 uM incubated for 24 hrs by acridine orange/ethidium bromide staining based fluorescence microscopic analysis; assay type: functional, cell-based
PANC-1 [7] = assay: Induction of apoptosis in human PANC-1 cells assessed as early apoptotic cells at IC50 incubated for 24 hrs by annexin V-FITC/PI staining based flow cytometry analysis (reference value: 0%); assay type: functional
PANC-1 [8] = assay: Induction of apoptosis in human PANC-1 cells assessed as late apoptotic cells at IC50 incubated for 24 hrs by annexin V-FITC/PI staining based flow cytometry analysis (reference value: 0.2%); assay type: functional
PANC-1 [9] = assay: Induction of apoptosis in human PANC-1 cells assessed as total cell viability at IC50 incubated for 24 hrs by annexin V-FITC/PI staining based flow cytometry analysis (reference value: 84.4%); assay type: functional
PANC-1 [10] = assay: Induction of morphological changes in human PANC-1 cells assessed as cell shrinkage at 6.51 uM incubated for 24 hrs by acridine orange/ethidium bromide staining based fluorescence microscopic analysis; assay type: functional
PANC-1 [11] = assay: Cytotoxicity against human PANC-1 cells assessed as inhibition of cell growth incubated for 24 hrs by MTT assay; assay type: functional, cell-based; settings: PANC-1, 24 h
[12] = Selectivity index, ratio of IC50 for cytotoxicity against human hTERT-HPNE cells to IC50 for cytotoxicity against human PANC-1 cells; assay type: toxicity, cell-based; settings: hTERT-HPNE cells versus PANC-1 cells, read-out: Ratio IC50
[13] = Selectivity index, ratio of IC50 for cytotoxicity against human CCD 19Lu cells to IC50 for cytotoxicity against human A549 cells; assay type: toxicity, cell-based; settings: CCD 19Lu cells versus A549 cells, read-out: Ratio IC50
PANC-1 [14] = assay: Inhibition of DNA synthesis in human PANC-1 cells at 6.51 uM incubated for 24 hrs by BrdU incorporation assay relative to control; assay type: functional
PANC-1 [15] = assay: Induction of apoptosis in human PANC-1 cells assessed as activation of caspase-3 by measuring caspase-3 positive cells at IC50 incubated for 24 hrs by flow cytometry analysis (reference value: 1.8%); assay type: functional
[16] = target: Procathepsin L (Homo sapiens) (UniProt P07711); assay: Inhibition of cathepsin L (unknown origin) at 100 uM
Sequence of Procathepsin L (Homo sapiens) (P07711 114-333 limits assumed): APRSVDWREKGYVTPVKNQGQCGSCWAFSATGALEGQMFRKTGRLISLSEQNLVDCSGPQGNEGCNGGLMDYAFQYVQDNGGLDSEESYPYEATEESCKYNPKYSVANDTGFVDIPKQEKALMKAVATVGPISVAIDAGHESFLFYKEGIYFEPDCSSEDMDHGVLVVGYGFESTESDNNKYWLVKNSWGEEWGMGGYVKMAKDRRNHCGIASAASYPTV

PANC-1 [17] = assay: Induction of morphological changes in human PANC-1 cells assessed as chromatin condensation at 6.51 uM incubated for 24 hrs by acridine orange/ethidium bromide staining based fluorescence microscopic analysis; assay type: functional, cell-based
[18] = Cytotoxicity against human hTERT-HPNE cells assessed as inhibition of cell growth incubated for 24 hrs by MTT assay; assay type: toxicity, cell-based
PANC-1 [19] = assay: Induction of apoptosis in human PANC-1 cells assessed as activation of caspase-3 by measuring caspase-3 negative cells at IC50 incubated for 24 hrs by flow cytometry analysis (reference value: 98.5 %); assay type: functional
PANC-1 [20] = assay: Induction of apoptosis in human PANC-1 cells assessed as total apoptotic cells at IC50 incubated for 24 hrs by annexin V-FITC/PI staining based flow cytometry analysis relative to control; assay type: functional
A549 [21] = assay: Induction of morphological changes in human A549 cells assessed as chromatin condensation at 5.99 uM incubated for 24 hrs by acridine orange/ethidium bromide staining based fluorescence microscopic analysis; assay type: functional, cell-based
A549 [22] = assay: Induction of apoptosis in human A549 cells assessed as total cell viability at IC50 incubated for 24 hrs by annexin V-FITC/PI staining based flow cytometry analysis (reference value: 85.6 %); assay type: functional
PANC-1 [23] = assay: Induction of morphological changes in human PANC-1 cells assessed as formation of apoptotic bodies at 5.99 uM incubated for 24 hrs by acridine orange/ethidium bromide staining based fluorescence microscopic analysis; assay type: functional, cell-based
A549 [24] = assay: Inhibition of DNA synthesis in human A549 cells at 5.99 uM incubated for 24 hrs by BrdU incorporation assay relative to control; assay type: functional
A549 [25] = assay: Induction of apoptosis in human A549 cells assessed as early apoptotic cells at IC50 incubated for 24 hrs by annexin V-FITC/PI staining based flow cytometry analysis (reference value: 5.6%); assay type: functional
A549 [26] = assay: Induction of apoptosis in human A549 cells assessed as total apoptotic cells at IC50 incubated for 24 hrs by annexin V-FITC/PI staining based flow cytometry analysis relative to control; assay type: functional
PANC-1 [27] = assay: Inhibition of DNA synthesis in human PANC-1 cells at 5.99 uM incubated for 24 hrs by BrdU incorporation assay relative to control; assay type: functional
A549 [28] = assay: Induction of apoptosis in human A549 cells assessed as activation of caspase-3 by measuring caspase-3 positive cells at IC50 incubated for 24 hrs by flow cytometry analysis (reference value: 8.4%); assay type: functional
A549 [29] = assay: Induction of mitochondrial membrane potential loss in human A549 cells assessed as depolarized cells at IC50 incubated for 24 hrs by JC-1 staining based flow cytometry assay (reference value: 6.9%); assay type: functional
A549 [30] = assay: Induction of apoptosis in human A549 cells assessed as activation of caspase-3 by measuring caspase-3 negative cells at IC50 incubated for 24 hrs by flow cytometry analysis (reference value: 91.1%); assay type: functional
A549 [31] = assay: Induction of apoptosis in human A549 cells assessed as late apoptotic cells at IC50 incubated for 24 hrs by annexin V-FITC/PI staining based flow cytometry analysis (reference value: 6.5 %); assay type: functional
A549 [32] = assay: Induction of apoptosis in human A549 cells assessed as increase in intracellular calcium level at 5.99 uM by Fluo-4-AM staining based flow cytometry analysis; assay type: functional, cell-based
A549 [33] = assay: Induction of mitochondrial membrane potential loss in human A549 cells assessed as polarized cells at IC50 incubated for 24 hrs by JC-1 staining based flow cytometry assay (reference value: 90.6%); assay type: functional
A549 [34] = assay: Induction of morphological changes in human A549 cells assessed as formation of apoptotic bodies at 5.99 uM incubated for 24 hrs by acridine orange/ethidium bromide staining based fluorescence microscopic analysis; assay type: functional, cell-based
PANC-1 [35] = assay: Induction of morphological changes in human PANC-1 cells assessed as cell shrinkage at 5.99 uM incubated for 24 hrs by acridine orange/ethidium bromide staining based fluorescence microscopic analysis; assay type: functional
PANC-1 [36] = assay: Induction of morphological changes in human PANC-1 cells assessed as chromatin condensation at 5.99 uM incubated for 24 hrs by acridine orange/ethidium bromide staining based fluorescence microscopic analysis; assay type: functional, cell-based
A549 [37] = assay: Induction of morphological changes in human A549 cells assessed as cell shrinkage at 5.99 uM incubated for 24 hrs by acridine orange/ethidium bromide staining based fluorescence microscopic analysis; assay type: functional

- inhibition [1]: 27.5%
- inhibition [16]: inactive
Compound: CN(C)c1ccc(/C=C2\Cc3cc4c(cc3C2=O)OCO4)cc1
- IC50 (A549 [2]): 66.2 µM
- Activity (PANC-1 [3]): 83.9%
- Activity (PANC-1 [4]): 11%
- IC50 at 24 h [5]: > 1630 µM
- Activity (PANC-1 [6]): Active
- Activity (PANC-1 [7]): 24.7%
- Activity (PANC-1 [8]): 15.9%
- Activity (PANC-1 [9]): 50.4%
- Activity (PANC-1 [10]): Active
- IC50 (PANC-1 [11]): < 12.7 µM
- selectivity ratio [12]: > 128
- selectivity ratio [13]: > 24.6
- inhibition at 6.51 µM (PANC-1 [14]): 16.9%
- Activity (PANC-1 [15]): 4.7%
- Activity (PANC-1 [17]): Active
- IC50 at 24 h [18]: > 1630 µM
- Activity (PANC-1 [19]): 96.5%
- Activity (PANC-1 [20]): 40.6%

- inhibition [1]: 52.7%
Compound: O=C1/C(=C/c2ccc(N3CCCC3)cc2)Cc2cc3c(cc21)OCO3
- Activity (A549 [21]): Active
- Activity (A549 [22]): 12.5%
- Activity (PANC-1 [23]): Active
- inhibition at 5.99 µM (A549 [24]): 4.41%
- IC50 (A549 [2]): < 11.7 µM
- Activity (PANC-1 [3]): 82%
- Activity (A549 [25]): 65.4%
- Activity (A549 [26]): 85.4%
- inhibition at 5.99 µM (PANC-1 [27]): 31%
- Activity (PANC-1 [4]): 16.7%
- Activity (A549 [28]): 7.4%
- Activity (A549 [29]): 65%
- IC50 at 24 h [5]: 61.5 µM
- Activity (PANC-1 [7]): 0.6%
- Activity (PANC-1 [8]): 3.4%
- Activity (PANC-1 [9]): 76.3%
- Activity (A549 [30]): 92.5%
- IC50 (PANC-1 [11]): < 11.7 µM
- selectivity ratio [12]: > 128
- Activity (A549 [31]): 20%
- Activity (A549 [32]): Active
- selectivity ratio [13]: > 5.25
- Activity (A549 [33]): 76.4%
- Activity (A549 [34]): Active
- Activity (PANC-1 [15]): 11.3%
- Activity (PANC-1 [35]): Active
- Activity (PANC-1 [36]): Active
- IC50 at 24 h [18]: > 1500 µM
- Activity (PANC-1 [19]): 89.6%
- Activity (A549 [37]): Active
